The values below come from patent publication US7879887B2, “α-amino acid derivatives and medicaments containing the same as an active ingredient” (Nissan Chemical Industries, Ltd., priority 2006, dated 2011).

Assay [1] has as its target T1, Aurora A (Homo sapiens, UniProt O14965).
T1 construct: purchased Upstate Inc. 14-511
T1 sequence (O14965 1-403): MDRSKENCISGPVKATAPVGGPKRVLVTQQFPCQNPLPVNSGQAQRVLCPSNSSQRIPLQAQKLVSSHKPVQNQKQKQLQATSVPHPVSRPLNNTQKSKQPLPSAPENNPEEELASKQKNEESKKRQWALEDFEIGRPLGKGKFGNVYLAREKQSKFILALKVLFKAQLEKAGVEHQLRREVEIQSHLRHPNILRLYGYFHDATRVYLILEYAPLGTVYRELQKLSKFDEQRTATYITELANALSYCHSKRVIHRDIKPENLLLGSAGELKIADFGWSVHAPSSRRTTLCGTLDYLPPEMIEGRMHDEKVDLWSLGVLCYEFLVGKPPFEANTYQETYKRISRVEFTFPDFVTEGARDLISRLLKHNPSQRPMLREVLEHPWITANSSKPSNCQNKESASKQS
Kind of assay: In vitro kinase assay, Aurora A. The class given is biochemical. The note with it: recombinant protein (Upstate). The procedure: Inhibitory activity against Aurora A, CDK1/Cyclin B complex, CDK2/Cyclin E complex and CDK3/Cyclin E complex were measured by in vitro kinase assay using recombinant proteins. The assays were carried out by using recombinant proteins (Upstate Inc.) for Aurora A, CDK1/Cyclin B complex, CDK2/Cyclin E complex and CDK3/Cyclin E complex (respective cat. nos. 14-511, 14-450, 14-448 and 14-487), in accordance with the procedure described in the product instructions thereof. The 50% inhibitory concentrations (IC50 values) were calculated by assigning measured values in the case of not containing a test compound to an inhibition of 0%, and assigning measured values in the case of not containing a test compound and enzyme to an inhibition of 100%.

The target in assay [2] is CDK2/Cyclin E complex (Homo sapiens, UniProt P24941). Kind of assay: In vitro kinase assay, CDK2/Cyclin E complex. The class given is biochemical. The following applies: recombinant protein (Upstate); read-out: CDK2/cyclinE IC50. The procedure: (§1) Inhibitory activity against Aurora A, CDK1/Cyclin B complex, CDK2/Cyclin E complex and CDK3/Cyclin E complex were measured by in vitro kinase assay using recombinant proteins.

The target of assay [3] is T2, CDK3/Cyclin E complex (Homo sapiens, UniProt Q00526).
T2 construct: purchased Upstate Inc. 14-487
Kind of assay: In vitro kinase assay, CDK3/Cyclin E complex. The following applies: recombinant protein (Upstate); read-out: CDK3/cyclinE IC50. The class given is biochemical. The procedure: as §1

In assay [4] the test system is colon carcinoma cell line SW620. Kind of assay: Cell proliferation inhibitory activity, SW620. The note with it: cells counted 4 days later with Cell Counting Kit-8. The class given is cell-based, human. The procedure:
(§2) Evaluations were carried out using colon carcinoma cell line SW620 (Cat. No. CCL-227), lung carcinoma cell line NCI-H460 (Cat. No. HTB-177), prostate cancer cell line DU 145 (Cat. No. HTB-81), breast cancer cell line MDA-MB-231 (Cat. No. HTB26) and leukemia cell line KG-1a (Cat. No. CCL-246.1) purchased from ATCC, pancreatic cancer cell line MIAPaCa-2 (Cat. No. CRL-1420) purchased from Dainippon Pharmaceutical, and ovarian cancer cell line IGROV1 received from the Netherland Cancer Institute. The cells were cultured under the conditions recommended by the supplier for each cell line, or with respect to IGROV1, according to the method described in Cancer Res. 59: 4559-4563, 1999. Cells suspended in media were added to solutions containing the test substances at various concentrations followed by culturing in a 5% CO2 incubator at 37° C. The numbers of cells were counted 4 days later with the Cell Counting Kit-8. IC50 values were calculated by assigning measured values in the case of not containing a test substance to an inhibition of 0%, and assigning measured values in the case of not containing a test substance or cells to an inhibition of 100%.
In general terms: Formazan colour is commonly taken as a measure of viable cells.

The subject of assay [5] is leukemia cell line KG-1a. Kind of assay: Cell proliferation inhibitory activity, KG-1a. The following applies: cells counted 4 days later with Cell Counting Kit-8. The class given is cell-based. The procedure:
as §2

Assay [6] relates to prostate cancer cell line DU 145. The assay can be described thus: Cell proliferation inhibitory activity, DU 145. The class given is cell-based, human. The following applies: cells counted 4 days later with Cell Counting Kit-8. The procedure: as §2

T2 sequence (Q00526 whole entry): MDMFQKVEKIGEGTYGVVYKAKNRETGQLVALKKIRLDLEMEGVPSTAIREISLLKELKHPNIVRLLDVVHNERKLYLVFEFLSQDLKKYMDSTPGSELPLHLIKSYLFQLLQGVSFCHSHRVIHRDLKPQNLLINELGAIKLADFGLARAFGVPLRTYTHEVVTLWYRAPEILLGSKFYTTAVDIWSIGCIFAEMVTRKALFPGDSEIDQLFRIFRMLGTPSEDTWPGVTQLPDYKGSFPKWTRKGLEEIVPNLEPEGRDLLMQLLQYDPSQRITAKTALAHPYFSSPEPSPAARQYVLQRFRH
T2 sequence (P24864 whole entry partner): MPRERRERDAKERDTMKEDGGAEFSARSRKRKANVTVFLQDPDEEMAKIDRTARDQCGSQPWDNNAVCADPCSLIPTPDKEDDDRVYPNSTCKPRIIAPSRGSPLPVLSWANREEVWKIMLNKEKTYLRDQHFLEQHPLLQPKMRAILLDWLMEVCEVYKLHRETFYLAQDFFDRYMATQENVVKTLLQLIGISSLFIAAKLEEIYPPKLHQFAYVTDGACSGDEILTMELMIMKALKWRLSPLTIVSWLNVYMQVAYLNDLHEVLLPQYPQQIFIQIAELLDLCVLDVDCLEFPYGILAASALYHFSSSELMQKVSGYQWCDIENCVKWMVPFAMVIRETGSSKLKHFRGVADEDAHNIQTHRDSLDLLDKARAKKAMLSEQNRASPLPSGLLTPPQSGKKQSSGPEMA

`O=C(CNc1cccc(O)c1)Nc1nc2ccc3[nH]ncc3c2s1` [compound 2]: the IC50 in assay [1] is 0.148 µM; in assay [2] it was 0.082 µM; in assay [3] it was 0.128 µM; in assay [4] (Homo sapiens, SW-620, 96 h) it was 1.2 µM; in assay [5] (Homo sapiens, 96 h) it was under 0.1 µM.
For the compound `COc1cc(NCC(=O)Nc2nc3ccc4[nH]ncc4c3s2)ccc1Cl` [compound 4], the IC50 in assay [2] turned out to be 0.335 µM; in assay [3] it was 0.468 µM; in assay [4] (Homo sapiens, SW-620, 96 h), 2 µM; in assay [5] (Homo sapiens, 96 h), 0.1 µM.
Consider `O=C(CNc1cc(F)cc(F)c1)Nc1nc2ccc3[nH]ncc3c2s1` [compound 5], for which, in assay [5], the IC50 was under 0.1 µM.
As for `O=C(CNc1cccc(Cl)c1)Nc1nc2ccc3[nH]ncc3c2s1` [compound 8], the IC50 in assay [2] was found to be 0.171 µM.
On the same count and under the same terms, the result for `O=C(CNc1ccc2[nH]ncc2c1)Nc1nc2ccc3[nH]ncc3c2s1` [compound 13] reads 0.417 µM.
Turning to `CS(=O)(=O)Nc1cccc(NCC(=O)Nc2nc3ccc4[nH]ncc4c3s2)c1` [compound 14], the IC50 is 0.224 µM in assay [2]; 0.41 µM in assay [3]; 0.2 µM in assay [5] (Homo sapiens, 96 h).
Take `O=C(CNc1ccc2cn[nH]c2c1)Nc1nc2ccc3[nH]ncc3c2s1` [compound 15]: the results for the IC50 in assay [2] and in assay [3] were 0.04 µM and 0.088 µM, respectively.
On to `O=C(CNc1ccccc1)Nc1nc2c(C(F)(F)F)cc3[nH]ncc3c2s1` [compound 18], for which, in assay [3], the IC50 came out at 0.38 µM.
`Cc1cc2[nH]ncc2c2sc(NC(=O)CNc3ccccc3)nc12` [compound 19]: the IC50 in assay [2] is 0.19 µM; in assay [3], 0.242 µM; in assay [4] (Homo sapiens, SW-620, 96 h) it was 2.9 µM.
With `O=C(CNc1ccccc1)Nc1nc2c(F)cc3[nH]ncc3c2s1` [compound 20], the IC50 amounted to 1.3 µM in assay [4] and 0.1 µM in assay [5].
For the compound `COc1cccc(NC(C)C(=O)Nc2nc3ccc4[nH]ncc4c3s2)c1` (centres unmarked) [compound 22], the IC50 in assay [1] is 0.387 µM; in assay [4] (Homo sapiens, SW-620, 96 h), 1.7 µM; in assay [5] (Homo sapiens, 96 h) it was under 0.1 µM.
Compound `COc1cccc(NC(CC(C)C)C(=O)Nc2nc3ccc4[nH]ncc4c3s2)c1` (centres unmarked) [compound 26] registered an IC50 in assay [5] of 0.2 µM.
`O=C(Nc1nc2ccc3[nH]ncc3c2s1)C(Nc1cccc(O)c1)c1ccccc1` (centres unmarked) [compound 27]: the IC50 was 0.115 µM in assay [1] and 0.1 µM in assay [5] (Homo sapiens, 96 h).
Consider `CCC(=O)Nc1cc(NC(C(=O)Nc2nc3c(C(F)(F)F)cc4[nH]ncc4c3s2)c2ccccc2)ccc1Cl` (centres unmarked) [compound 31], for which the IC50 came to 0.372 µM in assay [2]; 0.353 µM in assay [3]; 2.7 µM in assay [4] (Homo sapiens, SW-620, 96 h).
With `COc1cccc(NC(C)(C)C(=O)Nc2nc3ccc4[nH]ncc4c3s2)c1` [compound 34], the IC50 in assay [1] turned out to be 0.332 µM; in assay [5] (Homo sapiens, 96 h), 0.1 µM.
With `Cc1ccc(NC(C)(C)C(=O)Nc2nc3ccc4[nH]ncc4c3s2)cc1` [compound 39], the IC50 was 0.143 µM in assay [2]; 0.367 µM in assay [3]; 2 µM in assay [4] (Homo sapiens, SW-620, 96 h); under 0.1 µM in assay [5] (Homo sapiens, 96 h).
As to `COc1ccc(NC(C)(C)C(=O)Nc2nc3ccc4[nH]ncc4c3s2)cc1` [compound 40], the IC50 in assay [2] was 0.34 µM; in assay [4] (Homo sapiens, SW-620, 96 h), 2.3 µM; in assay [5] (Homo sapiens, 96 h), 0.2 µM.
For `CC(C)(Nc1cccc(F)c1)C(=O)Nc1nc2ccc3[nH]ncc3c2s1` [compound 42] the same measures were 0.434 µM, 2.2 µM and under 0.1 µM.
As to `COc1cc(NC(C)(C)C(=O)Nc2nc3ccc4[nH]ncc4c3s2)ccc1Cl` [compound 43], the IC50 in assay [1] was determined as 0.347 µM; in assay [5] (Homo sapiens, 96 h), 0.2 µM.
In the case of `CC(C)OC(=O)c1cc(NC(C)(C)C(=O)Nc2nc3ccc4[nH]ncc4c3s2)ccc1Cl` [compound 47], the IC50 is 0.148 µM in assay [1]; 0.26 µM in assay [2]; 0.343 µM in assay [3]; under 0.1 µM in assay [5] (Homo sapiens, 96 h).
`CCOC(=O)c1cc(NC(C)(C)C(=O)Nc2nc3ccc4[nH]ncc4c3s2)ccc1F` [compound 49]: the IC50 in assay [1] is 0.265 µM; in assay [5] (Homo sapiens, 96 h), under 0.1 µM.
Consider `CC(C)(Nc1ccc(Cl)cc1)C(=O)Nc1nc2c(C(F)(F)F)cc3[nH]ncc3c2s1` [compound 59], for which the IC50 in assay [4] came to 2.2 µM; in assay [6] it was 4.2 µM.
As for `CC(C)(Nc1cccc(C(=O)O)c1)C(=O)Nc1nc2c(C(F)(F)F)cc3[nH]ncc3c2s1` [compound 66], the IC50 turned out to be 0.294 µM in assay [1] and 0.333 µM in assay [3].
Consider `CC(C)(Nc1cccc(F)c1)C(=O)Nc1nc2c(C(F)(F)F)cc3[nH]ncc3c2s1` [compound 67], for which the IC50 in assay [3] came to 0.371 µM; in assay [4] (Homo sapiens, SW-620, 96 h), 3 µM.
Turning to `CC(C)(Nc1ccc2[nH]c(=O)[nH]c2c1)C(=O)Nc1nc2c(C(F)(F)F)cc3[nH]ncc3c2s1` [compound 83], the IC50 in assay [2] is 0.343 µM.
With `CC(C)(Nc1ccc(Cl)cc1C(=O)NCC(N)=O)C(=O)Nc1nc2c(C(F)(F)F)cc3[nH]ncc3c2s1` [compound 88], the IC50 in assay [2] turned out to be 0.449 µM; in assay [3], 0.386 µM; in assay [4] (Homo sapiens, SW-620, 96 h), 2.9 µM.
As to `CON(C)C(=O)c1cc(Cl)ccc1NC(C)(C)C(=O)Nc1nc2c(C(F)(F)F)cc3[nH]ncc3c2s1` [compound 100], the IC50 in assay [2] is 0.391 µM; in assay [3], 0.344 µM; in assay [4] (Homo sapiens, SW-620, 96 h) it was 3.3 µM; in assay [5] (Homo sapiens, 96 h), 0.3 µM.
For `O=C(CNc1ccc(F)cc1)Nc1nc2ccc3[nH]ncc3c2s1` [compound 105] the same measures were 0.205 µM, 0.257 µM, 1.5 µM and 0.1 µM.
Consider `CC(=O)Nc1cccc(NCC(=O)Nc2nc3ccc4[nH]ncc4c3s2)c1` [compound 106], for which the IC50 in assay [2] was 0.055 µM; in assay [3] it was 0.153 µM; in assay [5] (Homo sapiens, 96 h), under 0.1 µM.
Turning to `O=C(CNc1ccccc1)Nc1nc2ccc3[nH]nc(Cl)c3c2s1` [compound 108], the IC50 in assay [5] stood at 0.3 µM.
For `NC(=O)CC(Nc1cccc(O)c1)C(=O)Nc1nc2ccc3[nH]ncc3c2s1` (centres unmarked) [compound 109], the IC50 in assay [1] is 0.364 µM; in assay [2] it was 0.056 µM; in assay [3], 0.055 µM; in assay [5] (Homo sapiens, 96 h), under 0.1 µM.
Take `COc1cccc(NC(CC(N)=O)C(=O)Nc2nc3ccc4[nH]ncc4c3s2)c1` (centres unmarked) [compound 110]: the IC50 turned out to be 0.32 µM in assay [2] and 0.392 µM in assay [3].
For the compound `O=C(Nc1nc2ccc3[nH]ncc3c2s1)C1CCCN1c1ccc(Cl)cc1` (centres unmarked) [compound 111], the IC50 in assay [2] was 0.1 µM; in assay [3], 0.262 µM; in assay [4] (Homo sapiens, SW-620, 96 h) it was 2.3 µM; in assay [5] (Homo sapiens, 96 h), 0.5 µM.
On to `COc1cccc(NC2(C(=O)Nc3nc4ccc5[nH]ncc5c4s3)CC2)c1` [compound 119], for which the IC50 stood at 2.6 µM in assay [4] and 0.3 µM in assay [5].
Consider `CC(C)OC(=O)c1cc(NC2(C(=O)Nc3nc4ccc5[nH]ncc5c4s3)CC2)ccc1Cl` [compound 123], for which the IC50 in assay [2] was 0.141 µM; in assay [3] it was 0.195 µM; in assay [4] (Homo sapiens, SW-620, 96 h) it was 2.3 µM.
Regarding `CN(C)C(=O)c1cc(NC2(C(=O)Nc3nc4ccc5[nH]ncc5c4s3)CC2)ccc1Cl` [compound 124], the IC50 in assay [5] came out at 0.1 µM.
Turning to `CC(=O)Nc1cc(NC(C(=O)Nc2nc3ccc4[nH]ncc4c3s2)c2ccccc2)ccc1Cl` (centres unmarked) [compound 131], the IC50 in assay [1] stood at 0.094 µM; in assay [2], 0.277 µM; in assay [3], 0.427 µM; in assay [4] (Homo sapiens, SW-620, 96 h), 3 µM.
Consider `COC(=O)c1cccc(NCC(=O)Nc2nc3ccc4[nH]ncc4c3s2)c1` [compound 134], for which the IC50 in assay [2] is 0.339 µM; in assay [3], 0.477 µM; in assay [4] (Homo sapiens, SW-620, 96 h) it was 1.9 µM; in assay [5] (Homo sapiens, 96 h), under 0.1 µM.
